Converted amounts (≈) assume the structure as drawn. Starred links: 1 amine or outer side, 2 acyl side, 3 side chain; linkers in the order of their positions; H or OH if unused. Non-standard residues stand in square brackets, D forms with d. Residues, ends and D or L forms follow the SMILES beside them. NMePhe(3-(3-pyridyl)) = CN[C@@H](Cc1cccc(-c2cccnc2)c1)C(=O)O; X1 = CC[C@@H](C)[C@@H](O[*:1])C(=O)[*:2]; Hmp(2R,3S) = CC[C@H](C)[C@@H](O)C(=O)O; NMeVal(β-OH) = CN[C@H](C(=O)O)C(C)(C)O; NMeF = CN[C@@H](Cc1ccccc1)C(=O)O; aIle = CC[C@@H](C)[C@H](N)C(=O)O; NMeV = CN[C@H](C(=O)O)C(C)C
How the values were obtained:
Candida parapsilosis [1] = assay: Antifungal activity against Candida parapsilosis ATCC 22019 by broth dilution method; assay type: functional; details: Lodderomyces parapsilosis
Aspergillus flavus [2] = assay: Antifungal activity against Aspergillus flavus ATCC 64025 by broth dilution method; assay type: functional
Candida albicans [3] = assay: Antifungal activity against Candida albicans ATCC 24433 by broth dilution method; assay type: functional
[4] = system: Trichophyton mentagrophytes; assay: Antifungal activity against Trichophyton mentagrophytes ATCC 28185 by broth dilution method; assay type: functional
Candida albicans [5] = assay: Antifungal activity against Candida albicans ATCC 90028 by broth dilution method; assay type: functional
Rhizopus arrhizus = assay: Antifungal activity against Rhizopus oryzae ATCC 11886 by broth dilution method; assay type: functional
Aspergillus clavatus = assay: Antifungal activity against Aspergillus clavatus ATCC 10058 by broth dilution method; assay type: functional
Aspergillus niger [6] = assay: Antifungal activity against Aspergillus niger ATCC 16888 by broth dilution method; assay type: functional
Clavispora lusitaniae = assay: Antifungal activity against Candida lusitaniae ATCC 66035 by broth dilution method; assay type: functional
Candida albicans [7] = assay: Antifungal activity against Candida albicans ATCC 204276 by broth dilution method; assay type: functional
[8] = system: Meyerozyma guilliermondii; assay: Antifungal activity against Candida guilliermondii ATCC 34134 by broth dilution method; assay type: functional
Candida parapsilosis [9] = assay: Antifungal activity against Candida parapsilosis ATCC 90018 by broth dilution method; assay type: functional; details: Lodderomyces parapsilosis
Trichophyton rubrum = assay: Antifungal activity against Trichophyton rubrum ATCC MYA-4438 by broth dilution method; assay type: functional
Aspergillus nidulans = assay: Antifungal activity against Emericella nidulans ATCC 96921 by broth dilution method; assay type: functional
Pichia kudriavzevii [10] = assay: Antifungal activity against Candida krusei ATCC 14243 by broth dilution method; assay type: functional
Aspergillus flavus [11] = assay: Antifungal activity against Aspergillus flavus ATCC 204304 by broth dilution method; assay type: functional
[12] = system: Trichophyton mentagrophytes; assay: Antifungal activity against Trichophyton mentagrophytes ATCC MYA-4439 by broth dilution method; assay type: functional
Candida tropicalis [13] = assay: Antifungal activity against Candida tropicalis ATCC 750 by broth dilution method; assay type: functional
Aspergillus fumigatus [14] = assay: Antifungal activity against Aspergillus fumigatus ATCC MYA-32626 by broth dilution method; assay type: functional
Candida albicans [15] = assay: Antifungal activity against Candida albicans ATCC 90029 by broth dilution method; assay type: functional
Nakaseomyces glabratus = assay: Antifungal activity against Candida glabrata ATCC 90030 by broth dilution method; assay type: functional
Aspergillus ochraceus = assay: Antifungal activity against Aspergillus ochraceus ATCC 96919 by broth dilution method; assay type: functional
Aspergillus flavus [16] = assay: Antifungal activity against Aspergillus flavus ATCC 22546 by broth dilution method; assay type: functional
Aspergillus niger [17] = assay: Antifungal activity against Aspergillus niger ATCC 64028 by broth dilution method; assay type: functional
Candida tropicalis [18] = assay: Antifungal activity against Candida tropicalis ATCC 90874 by broth dilution method; assay type: functional
Aspergillus fumigatus [19] = assay: Antifungal activity against Aspergillus fumigatus ATCC 20435 by broth dilution method; assay type: functional
Aspergillus candidus = assay: Antifungal activity against Aspergillus candidus ATCC 13686 by broth dilution method; assay type: functional
Cryptococcus neoformans = assay: Antifungal activity against Cryptococcus neoformans ATCC […] by broth dilution method; assay type: functional
Saccharomyces cerevisiae = assay: Antifungal activity against Saccharomyces cerevisiae ATCC 7754 by broth dilution method; assay type: functional
Candida albicans [20] = assay: Antifungal activity against Candida albicans ATCC MYA-2732 by broth dilution method; assay type: functional
Candida albicans [21] = assay: Antifungal activity against Candida albicans ATCC 10231 by broth dilution method; assay type: functional
Sporothrix schenckii = assay: Antifungal activity against Sporothrix schenckii ATCC 14284 by broth dilution method; assay type: functional
Fusarium oxysporum = assay: Antifungal activity against Fusarium oxysporum ATCC 48112 by broth dilution method; assay type: functional
Pichia kudriavzevii [22] = assay: Antifungal activity against Issatchenkia orientalis ATCC 6258 by broth dilution method; assay type: functional
[23] = Time dependent inhibition of Candida albicans ATCC 38247 membrane inositol phosphorylceramide synthase using ceramide as substrate
Aspergillus fumigatus [24] = assay: Antifungal activity against Aspergillus fumigatus by broth dilution method; assay type: functional
Candida albicans [25] = assay: Antifungal activity against Candida albicans by broth dilution method; assay type: functional
[26] = Ratio of MIC for Aspergillus fumigatus to MIC for Candida albicans; assay type: functional

SMILES | MIC (Candida parapsilosis [1]) [µg/mL] | MIC (Aspergillus flavus [2]) [µg/mL] | MIC (Candida albicans [3]) [µg/mL] | MIC [4] [µg/mL] | MIC (Candida albicans [5]) [µg/mL] | MIC (Rhizopus arrhizus) [µg/mL] | MIC (Aspergillus clavatus) [µg/mL] | MIC (Aspergillus niger [6]) [µg/mL] | MIC (Clavispora lusitaniae) [µg/mL] | MIC (Candida albicans [7]) [µg/mL] | MIC [8] [µg/mL] | MIC (Candida parapsilosis [9]) [µg/mL] | MIC (Trichophyton rubrum) [µg/mL] | MIC (Aspergillus nidulans) [µg/mL] | MIC (Pichia kudriavzevii [10]) [µg/mL] | MIC (Aspergillus flavus [11]) [µg/mL] | MIC [12] [µg/mL] | MIC (Candida tropicalis [13]) [µg/mL] | MIC (Aspergillus fumigatus [14]) [µg/mL] | MIC (Candida albicans [15]) [µg/mL] | further results
C[C@@H]1[C@H](O)[C@@H](C)/C=C/C=C/C=C/C=C/C=C/C=C/C=C/[C@H](O[C@@H]2O[C@H](C)[C@@H](O)[C@H](N)[C@@H]2O)C[C@@H]2O[C@](O)(C[C@@H](O)C[C@@H](O)[C@H](O)CC[C@@H](O)C[C@@H](O)CC(=O)O[C@H]1C)C[C@H](O)[C@H]2C(=O)O [AMPHOTERICIN B] | 0.125 (≈ 0.135 µM) | 0.5 (≈ 0.541 µM) | 0.03 (≈ 0.0325 µM) | 0.06 (≈ 0.0649 µM) | 0.03 (≈ 0.0325 µM) | 0.03 (≈ 0.0325 µM) | 0.004 (≈ 0.00433 µM) | 0.03 (≈ 0.0325 µM) | 0.015 (≈ 0.0162 µM) | 0.06 (≈ 0.0649 µM) | 0.008 (≈ 0.00866 µM) | 0.06 (≈ 0.0649 µM) | 0.03 (≈ 0.0325 µM) | 1 (≈ 1.08 µM) | 0.125 (≈ 0.135 µM) | 0.25 (≈ 0.271 µM) | 0.06 (≈ 0.0649 µM) | 0.06 (≈ 0.0649 µM) | 0.25 (≈ 0.271 µM) | 0.03 (≈ 0.0325 µM) | MIC (Nakaseomyces glabratus): 0.03 µg/mL (≈ 0.0325 µM); MIC (Aspergillus ochraceus): 0.25 µg/mL (≈ 0.271 µM); MIC (Aspergillus flavus [16]): 0.25 µg/mL (≈ 0.271 µM); MIC (Aspergillus niger [17]): 0.015 µg/mL (≈ 0.0162 µM); MIC (Candida tropicalis [18]): 0.06 µg/mL (≈ 0.0649 µM); MIC (Aspergillus fumigatus [19]): 0.25 µg/mL (≈ 0.271 µM); MIC (Aspergillus candidus): 0.03 µg/mL (≈ 0.0325 µM); MIC (Cryptococcus neoformans): 0.015 µg/mL (≈ 0.0162 µM); MIC (Saccharomyces cerevisiae): 0.06 µg/mL (≈ 0.0649 µM); MIC (Candida albicans [20]): 0.06 µg/mL (≈ 0.0649 µM); MIC (Candida albicans [21]): 0.03 µg/mL (≈ 0.0325 µM); MIC (Sporothrix schenckii): 0.5 µg/mL (≈ 0.541 µM); MIC (Fusarium oxysporum): 1 µg/mL (≈ 1.08 µM); MIC (Pichia kudriavzevii [22]): 0.125 µg/mL (≈ 0.135 µM)
CC[C@@H](C)[C@@H]1NC(=O)[C@@H]2CCCN2C(=O)[C@H](Cc2ccccc2)N(C)C(=O)[C@H](Cc2ccccc2)NC(=O)[C@H](C(C)C)N(C)C(=O)[C@@H]([C@H](C)CC)OC(=O)[C@H](C(C)(C)O)N(C)C(=O)[C@H](CC(C)C)NC(=O)[C@H](C(C)C)N(C)C1=O [AUREOBASIDIN A] (cyclo(F[NMeF]P[aIle][NMeV]L[NMeVal(β-OH)][X1][NMeV])) | – | – | – | – | – | – | – | – | – | – | – | – | – | – | – | – | – | – | – | – | Ki [23]: 0.2 nM; MIC (Aspergillus fumigatus [24]): > 25 µg/mL; MIC (Candida albicans [25]): < 0.05 µg/mL
CC[C@H](C)[C@@H]1NC(=O)[C@@H]2CCCN2C(=O)[C@H](Cc2cccc(-c3cccnc3)c2)N(C)C(=O)[C@H](Cc2ccccc2)NC(=O)[C@H](C(C)C)N(C)C(=O)[C@@H]([C@@H](C)CC)OC(=O)[C@H](C(C)(C)O)N(C)C(=O)[C@H](CC(C)C)NC(=O)[C@H](C(C)C)N(C)C1=O (cyclo(F[NMePhe(3-(3-pyridyl))]PI[NMeV]L[NMeVal(β-OH)][Hmp(2R,3S)][NMeV])) | 0.06 (≈ 0.0509 µM) | 1 (≈ 0.849 µM) | 0.125 (≈ 0.106 µM) | 1 (≈ 0.849 µM) | 0.015 (≈ 0.0127 µM) | > 64 | 0.03 (≈ 0.0255 µM) | 0.125 (≈ 0.106 µM) | 0.125 (≈ 0.106 µM) | 0.03 (≈ 0.0255 µM) | 0.03 (≈ 0.0255 µM) | 0.03 (≈ 0.0255 µM) | 2 (≈ 1.7 µM) | 0.125 (≈ 0.106 µM) | 0.06 (≈ 0.0509 µM) | 1 (≈ 0.849 µM) | 0.5 (≈ 0.424 µM) | 0.03 (≈ 0.0255 µM) | 2 (≈ 1.7 µM) | 0.5 (≈ 0.424 µM) | Ratio [26]: > 10; MIC (Aspergillus fumigatus [24]): < 0.94 µg/mL; MIC (Nakaseomyces glabratus): 0.03 µg/mL (≈ 0.0255 µM); MIC (Aspergillus ochraceus): 0.25 µg/mL (≈ 0.212 µM); MIC (Aspergillus flavus [16]): 2 µg/mL (≈ 1.7 µM); MIC (Aspergillus niger [17]): 0.03 µg/mL (≈ 0.0255 µM); MIC (Candida tropicalis [18]): 0.015 µg/mL (≈ 0.0127 µM); MIC (Candida albicans [25]): < 0.05 µg/mL; MIC (Aspergillus fumigatus [19]): 1 µg/mL (≈ 0.849 µM); MIC (Aspergillus candidus): 0.008 µg/mL (≈ 0.00679 µM); MIC (Cryptococcus neoformans): 0.03 µg/mL (≈ 0.0255 µM); MIC (Saccharomyces cerevisiae): 0.03 µg/mL (≈ 0.0255 µM); MIC (Candida albicans [20]): 0.03 µg/mL (≈ 0.0255 µM); MIC (Candida albicans [21]): 1 µg/mL (≈ 0.849 µM); MIC (Sporothrix schenckii): > 64 µg/mL; MIC (Fusarium oxysporum): > 64 µg/mL; MIC (Pichia kudriavzevii [22]): 0.06 µg/mL (≈ 0.0509 µM)

Source: ChEMBL document CHEMBL3588806, “Generation of Broad-Spectrum Antifungal Drug Candidates from the Natural Product Compound Aureobasidin A” (ACS Med Chem Lett, 2015)
